Laboratory results: US11464228B2 (priority 2020, dated 2022)
“Also recorded” adds a separate entry of the source.

Key:
[1] = system: Microcystis aeruginosa (FACHB-905); test: Algicidal effect on toxin-producing Microcystis aeruginosa, OD680 over 5 d in light incubator; assay type: cell-based
Experimental: (§1) Microcystis aeruginosa is cultured in a light incubator (GZX-250BS-III), provided by Shanghai CIMO Medical Instrument Co., Ltd., with a light intensity of 3000 LX, a light-dark time ratio of 12:12, and a temperature setting of 25° C. The four kinds of bacteria are all cultured in a biochemical incubator (SPX-150), provided by Shanghai Yuejin Medical Instruments Co., Ltd., with a temperature setting of 37° C.
(§2) The concentration of Microcystis aeruginosa and other bacteria is measured with an ultraviolet spectrophotometer (Shimadzu, UV-2700), and the concentration is characterized by the optical density of liquid at 680 nm and 600 nm, and recorded as OD680 and OD600, respectively.
(§3) 100 mL of BG-11 medium was added to a 150 mL Erlenmeyer flasks, and was inoculated with cyanobacteria of 0.2 calculated as OD680 under aseptic conditions. Different volumes of the AA stock solution were added to the Erlenmeyer flasks to make sure that the dosage of AA was 5 mg/L, 7 mg/L, 10 mg/L, 15 mg/L and 20 mg/L in different Erlenmeyer flasks. At the same time, a control experiment (Control) without AA was established. The cyanobacteria were put in a light incubator for culture. Considering the existing reports that the most suitable growth light for cyanobacteria was 2,000-4,000 LX (see “Freshwater Algae Culture Collection at the Institute of Hydrobiology”, website “http://algae.ihb.ac.cn/Products/ProductDetail.aspx?product=523”, and the literature “The effect of light on the growth and chlorophyll fluorescence of Chlorella and Microcystis aeruginosa”, Journal of Xi'an University of Arts and Science, 2019, 22, 73-77”), 3,000 LX was selected as the light intensity in the present example. At the beginning of the incubation and after 0.5 d, 1 d, 1.5 d, 2 d, 3 d, 4 d and 5 d of the incubation, samples were taken to detect the OD680 under aseptic conditions.

[2] = system: Microcystis aeruginosa (FACHB-469); test: Algicidal effect on non-toxic Microcystis aeruginosa, OD680 over 5 d in light incubator; assay type: cell-based
Experimental: as §1, §2, §3
Except for the different cyanobacteria strain, other operations are the same as those in step (1).

[3] = system: Microcystis aeruginosa; test: Algicidal effect at different initial densities of Microcystis aeruginosa, OD680; assay type: cell-based; details: 15 mg/L; initial OD680 0.11 to 1.0 (up to 2.59×10^7 cells/mL); 5 d
Experimental: (§4) Unless otherwise specified, the Microcystis aeruginosa species used in the following examples is the high-toxin-producing strain FACHB-905.
as §2
100 mL of BG-11 medium was added to 150 mL Erlenmeyer flasks, and was inoculated with cyanobacteria to finally obtain solutions with the OD680 of 0.11, 0.27, 0.62 and 1.0, respectively, under aseptic conditions. A certain volume of the AA stock solution was added to the Erlenmeyer flasks, so that the dosage of AA is 15 mg/L. At the same time, the control experiments (Control) without AA were established for different cyanobacteria densities. The cyanobacteria were put in a light incubator for culture. At the beginning of the incubation and after 1 d, 2 d, 3 d, 4 d, and 5 d of the incubation, samples were taken to detect the OD680 under aseptic conditions.

[4] = system: Microcystis aeruginosa; test: Comparison of algaecides, inhibition rate from chlorophyll a content; assay type: cell-based; details: incubated 3 days; 15 mg/L
Source text: as §4
The measurement of chlorophyll a refers to the method in the literature (“Potent removal of cyanobacteria with controlled release of toxic secondary metabolites by a titanium xerogel coagulant”, Water Res. 2018, 128, 341-349). Specifically, collected algae culture is filtered with a 0.7 μm GF/F glass filter membrane (Whatman). The collected cells are frozen overnight in a refrigerator at −4° C. Then 90% acetone is added for overnight extraction. The extract is centrifuged in a high-speed refrigerated centrifuge (Tianuoda, CT14RD) at 10,000 rpm and 4° C. for 10 min to collect the supernatant, and the absorbance is detected at 630 nm, 663 nm, 645 nm and 750 nm. The formula for calculating the content of chlorophyll a is as follows:
[formula] wherein A663, A750, A645 and A750 are the absorbance of the supernatant at 663 nm, 750 nm, 645 nm and 750 nm, respectively. Ve is the volume of an extracted solution, Vs is the volume of a filtered solution, and δ is the optical path of a cuvette. The calculation formula for the inhibition rate of an algaecide on Microcystis aeruginosa is as follows: […]
300 mL of BG-11 medium was added to 500 mL Erlenmeyer flasks, and was inoculated with cyanobacteria of 0.2 calculated as OD680 under aseptic conditions. […]

[5] = system: Bacillus subtilis; test: Bacterial growth with AA, OD600 after 24 h; assay type: cell-based; details: for effect on growth (OD600): 6-768 mg/L, 24 h, vs control
Experimental: (§5) The bacteria used in the following examples are Escherichia coli, Salmonella, Bacillus subtilis and Staphylococcus aureus, all of which are provided by the School of Life Sciences, Nanjing University. The bacteria are cultured with an LB nutrient broth. The main components of the LB nutrient broth include: tryptone 10.0 g/L, yeast extract 5.0 g/L, and sodium chloride 10.0 g/L.
as §1, §2
(§6) 4 mL of nutrient broth was added to 9 test tubes under aseptic conditions, and the test tubes were numbered 1 to 9. A broth stock solution containing 1,536 mg/L AA was prepared, and 4 mL of which was taken and added to the No. 9 test tube. After the solution in the No. 9 test tube was uniformly mixed, 4 mL of the mixed solution in the No. 9 test tube was taken and added to the No. 8 test tube. By analogy, dilution was performed by the stepwise dilution method to the No. 2 test tube, and after uniform mixing, 4 mL of the solution in the No. 2 test tube was taken and discarded. The No. 1 test tube without AA was taken as the blank group (Control). The final concentrations of AA in each test tube from No. 1 to No. 9 were 0 mg/L, 6 mg/L, 12 mg/L, 24 mg/L, 48 mg/L, 96 mg/L, 192 mg/L, 384 mg/L, and 768 mg/L, respectively. A suspension of the bacteria was diluted with nutrient broth to an OD600 of 0.05. 100 μL of the diluted suspension was added to each of the 9 test tubes, and the test tubes were sealed with sterilized sealing films. After completing the above operations, the bacterial solutions were put into a biochemical incubator, and the OD600 in each test tube was measured after incubation for 24 h.

[6] = system: Escherichia coli; test: Bacterial growth with AA, OD600 after 24 h; assay type: cell-based; details: for growth rate (OD600) / effect on growth (OD600): 24 h; for effect on growth (OD600): 6-768 mg/L, vs control
Experimental: as §5, §1, §2, §6

[7] = system: Salmonella; test: Bacterial growth with AA, OD600 after 24 h; assay type: cell-based
Experimental: as §5, §1, §2, §6

[8] = system: Staphylococcus aureus; test: Bacterial growth with AA, OD600 after 24 h; assay type: cell-based
Experimental: as §5, §1, §2, §6

[9] = system: Microcystis aeruginosa; test: Actual photochemical quantum yield of the photosystem (Water-PAM); assay type: cell-based
Experimental: as §4
The actual photochemical quantum yield is measured using a Water-PAM phytoplankton analyzer (Walz), and 2.5 mL of algae culture is taken to measure Fm′ and Fs after light adaptation. The calculation formula for the actual photochemical quantum yield is as follows: ϕe=ΔF/Fm′=(Fm′−Fs)/Fm′ wherein ϕe is the actual photochemical quantum yield, and Fm′ and Fs are the maximum chlorophyll fluorescence and the stable chlorophyll fluorescence of the algae culture after light adaptation, respectively (“Effects of different algaecides on the photosynthetic capacity, cell integrity and microcystin-LR release of Microcystis aeruginosa”, Sci. Total Environ. 2013, 463, 111-119).
100 mL of BG-11 medium was added to 150 mL Erlenmeyer flasks, and was inoculated with cyanobacteria to an initial OD680 of 0.2 under aseptic conditions. Different volumes of the AA stock solution were added to the Erlenmeyer flasks, so that the dosage of AA was 7 mg/L, 10 mg/L and 15 mg/L, respectively. At the same time, a control experiment (Control) without AA was established. […] At the beginning of the incubation and after 0.5 d, 1 d, 1.5 d, 2 d, 3 d, 4 d, and 5 d of the incubation, samples were taken to detect the chlorophyll fluorescence parameters under aseptic conditions.

[10] = system: Microcystis aeruginosa; test: Growth inhibition under natural light (sunlit window sill), OD680; assay type: cell-based; details: under sunlight, within 5 days
Experimental: as §4, §2
100 mL of BG-11 medium was added to 150 mL Erlenmeyer flasks, and was inoculated with cyanobacteria to an initial OD680 of 0.2 under aseptic conditions. A certain volume of the AA stock solution was added to the Erlenmeyer flasks, so that the dosage of AA was 10 mg/L or 20 mg/L. At the same time, a control experiment (Control) without AA was established. The cyanobacteria were placed at a sunlit window sill for incubation. At the beginning of the incubation and after 0.5 d, 1 d, 1.5 d, 2 d, 3 d, 4 d, and 5 d of the incubation, samples were taken to detect the OD680 under aseptic conditions.

[11] = 25° C.; cited from earlier work
[12] = pH 6.4; cited from earlier work
[13] = system: Daphnia magna; details: cited from earlier work
[14] = concentration less than 738 mg/L

In the case of `CC(=O)CC(C)=O` [AA, acetylacetone], the “effect on growth (OD680)” value ([1]; 5 mg/L, compared to the control group) is reported as “no significant effect”, the “effect on growth (OD680)” value ([1]; 7 mg/L) is reported as “inhibited, but the growth curve of which is still increase” and the “algicidal effect on growth (OD680)” value ([1]; 10 mg/L, within 5 d, weaker than 15 mg/L) is reported as “continued to show algicidal effect”. The “growth curve (OD680)” value ([1]; 20 mg/L, compared with 15 mg/L AA) was “no significant change in the growth curve”, the “optical density (OD680)” value ([1]; AA concentration greater than 15 mg/L, starting from day 1.5) was “began to decrease” and the “effect on growth (OD680)” value ([1]; first day of addition, 5-20 mg/L) was “no significant effect”. For the same compound, the “algicidal effect on growth (OD680)” value ([2]; 5 mg/L) was “still showed algicidal effect”, the “algicidal effect on growth (OD680)” value ([2]; 7 mg/L) was “a certain algicidal effect” and the “growth curve (OD680)” value ([2]; 20 mg/L, compared with 10 mg/L and 15 mg/L AA) was “did not change significantly”. For the same compound, the “effect on growth (OD680)” value ([2]; dosage greater than 10 mg/L) was “significantly inhibited”, the “effect on growth (OD680)” value ([2]; on day 1.5) was “inhibited” and the “algicidal performance (OD680)” value [3] was “excellent algicidal performance”. For the same compound, the “inhibition rate on Microcystis aeruginosa (chlorophyll a)” value [4] was “higher than all other algaecides”, the “effect on growth (OD600)” value [5] was “basically had no influence on the growth” and the “effect on growth (OD600)” value ([5]; listed as acetylacetone) was “no inhibitory effect”. For the same compound, the killing of bacteria [5, 14] was “will not kill”, the “growth rate (OD600)” value ([6]; 12 mg/L) was “slightly lower than that of the control group” and the “effect on growth (OD600)” value [6] was “basically had no influence on the growth”. For the same compound, the “effect on growth (OD600)” value ([6]; listed as acetylacetone) was “no inhibitory effect”, the “growth rate (OD600)” value ([6]; concentration increased to 24 mg/L) was “increased slightly” and the killing of bacteria [6, 14] was “will not kill”. For the same compound, the “growth rate (OD600)” value ([7]; 768 mg/L, still a growth trend within 24 h) was “decreased”, the “growth rate (OD600)” value ([7]; 6-384 mg/L, compared with the control group) was “increased” and the “effect on growth (OD600)” value ([7]; 6-768 mg/L, 24 h, vs control) was “no inhibitory effect; also recorded: basically had no influence on the growth”. For the same compound, the killing of bacteria [7, 14] was “will not kill”, the “effect on growth (OD600)” value ([8]; 6-768 mg/L, 24 h, vs control) was “basically had no influence on the growth” and the “effect on growth (OD600)” value ([8]; 6-768 mg/L, 24 h, vs control, listed as acetylacetone) was “no inhibitory effect”. The killing of bacteria [8, 14] was “will not kill”, the “effect on growth (OD600)” value ([8]; concentration of up to 768 mg/L) was “can still promote the growth” and the “actual photochemical quantum yield” value ([9]; after 1 day of incubation, 7, 10, 15 mg/L) was “significantly inhibited”. For the same compound, the “actual photochemical quantum yield” value ([9]; second day of growth, AA of greater than 7 mg/L) was 0, the “effect on growth (OD680)” value ([10]; 10 mg/L) was “significantly inhibited” and the “effect on growth (OD680)” value ([10]; 20 mg/L) was “significantly inhibited”. For the same compound, the “Henry's law constant” value [11] was 2.35×10^−6 atm m^3/mol, the aquatic oxidation rate [12] was 9.9e-09 M⁻¹ s⁻¹ and the median lethal dose [13] was “higher than 50 mg/L”.
In the case of `O=C(O)c1cc(O)c(O)c(O)c1` [gallic acid, reference compound], the “inhibition rate on Microcystis aeruginosa (chlorophyll a)” value [4] is reported as “close to that of AA”.
